Experimental data published in patent publication US20220331303A1, “USE OF AN OREXIN 2 RECEPTOR AGONIST FOR THE TREATMENT OF EXCESSIVE SLEEPINESS” (Takeda Pharmaceutical Company Limited, priority 2019, published 2022).
Several values for one entry are separate records, joined by “and”; a condition that tells them apart may be missing. Equal values may be shown once.

Test system: sleep-deprived healthy volunteers
Experiment: Maintenance of wakefulness test (MWT) in sleep-deprived healthy volunteers
Assay type: in vivo, human
Conditions: for Stage N2 Duration (MWT), LS Mean Difference vs placebo / Total Microsleeps (MWT), LS Mean / Total Microsleeps (MWT), LS Mean Difference vs placebo / Duration Total Microsleeps (MWT), LS Mean / Duration Total Microsleeps (MWT), LS Mean Difference vs placebo / Latency to Sleep Onset on MWT, LS Mean / Latency to Sleep Onset on MWT, LS Mean Difference vs placebo / Stage N1 Duration (MWT), LS Mean / Stage N1 Duration (MWT), LS Mean Difference vs placebo / Stage N2 Duration (MWT), LS Mean: Compound A 112 mg (HD)
Protocol: The primary objective of this study was to determine the effect of Compound A (methyl (2R,3S)-3-((methylsulfonyl)amino)-2-(((cis-4-phenylcyclohexyl)oxy)methyl)piperidine-1-carboxylate), 44 mg (low dose [LD]) and 112 mg (high dose [HD]), after a single IV dose (compared to placebo) on promoting wakefulness as measured by sleep latency on the MWT (performed at approximately 2, 4, 6, and 8 hours post-dosing starting at approximately 1:00 AM and then at approximate times of 3:00, 5:00, and 7:00 AM) in sleep-deprived healthy volunteers.
This was a phase 1b, single-center, randomized, double-blind, double-dummy, placebo- and active-controlled, 4-period Williams design crossover study to evaluate the PK, PD, and safety of Compound A in sleep-deprived healthy volunteers. Compound A was administered as a 9-hour IV infusion.
Healthy adult male subjects aged 18 to 40 years, inclusive, who satisfied the inclusion and exclusion criteria were enrolled in the trial. On Day 1 of treatment period 1, eligible subjects were equally randomized to 4 treatment sequence groups (sequence 1 to 4) which defined the order of administration for Compound A LD, Compound A HD (both delivered as a 9-hour IV infusion), modafinil 300 mg, and placebo.
During the day before dosing on Day 1, participants were administered the KSS at scheduled timepoints. A practice MWT session was performed on Day 1 treatment period 1 (only once during the entire study) to familiarize subjects with the procedures. Study drug was administered in the clinic in the evening on Day 1 of each treatment period. Subjects underwent the MWT and KSS at specified timepoints after the start of the infusion. Subjects were required to stay awake between the MWT tests. Following completion of the IV infusion on Day 2, subjects underwent an additional MWT test. When the final MWT test and cognitive testing were completed, subjects were allowed to sleep (recovery sleep) for approximately 6 hours. PSG recording was collected during this time. Subjects were discharged from the unit after completion on Day 2 with continuing actigraphy upon discharge (to begin on Day −6 before the next treatment period). The interval between each subsequent treatment period was at least 7 days to ensure that the subject's circadian rhythm had returned to a normal cycle. Subject's vital signs, including BP, were monitored during the dosing and testing period. Blood samples for determination of Compound A plasma concentrations were collected at specified timepoints on Days 1 and 2 of each treatment period. Subjects completed the Columbia-Suicide Severity Rating Scale (C-SSRS) during screening, before study drug administration, and before discharge on Day 2 of each treatment period.
Primary endpoint: Latency for each MWT, defined as time to sleep onset.

[1] = average overall during infusion
[2] = Compound A 112 mg, after the end of infusion (1 hour post end of infusion)
[3] = HD: Compound A 112 mg, 2 HOURS POST INFUSION START
[4] = HD: Compound A 112 mg, 4 HOURS POST INFUSION START
[5] = HD: Compound A 112 mg, 6 HOURS POST INFUSION START
[6] = HD: Compound A 112 mg, 8 HOURS POST INFUSION START
[7] = HD: Compound A 112 mg, Average Overall, MWT during infusion
[8] = LD: Compound A 44 mg, 2 HOURS POST INFUSION START
[9] = LD: Compound A 44 mg, 4 HOURS POST INFUSION START
[10] = LD: Compound A 44 mg, 6 HOURS POST INFUSION START
[11] = LD: Compound A 44 mg, 8 HOURS POST INFUSION START
[12] = LD: Compound A 44 mg, Average Overall, MWT during infusion

COC(=O)N1CCC[C@H](NS(C)(=O)=O)[C@@H]1CO[C@H]1CC[C@@H](c2ccccc2)CC1 [Compound A, methyl (2R,3S)-3-((methylsulfonyl)amino)-2-(((cis-4-phenylcyclohexyl)oxy)methyl)piperidine-1-carboxylate]
Stage N2 Duration (MWT), LS Mean Difference vs placebo (4 hours post infusion start): -1.15 min | Total Microsleeps (MWT), LS Mean (4 hours post infusion start): 0.00 | Total Microsleeps (MWT), LS Mean Difference vs placebo (4 hours post infusion start): −2.35 | Duration Total Microsleeps (MWT), LS Mean (6 hours post infusion start): 0.43 s | Duration Total Microsleeps (MWT), LS Mean Difference vs placebo (6 hours post infusion start): -6.97 s | Latency to Sleep Onset on MWT, LS Mean (6 hours post infusion start): 38.36 min | Latency to Sleep Onset on MWT, LS Mean Difference vs placebo (6 hours post infusion start): 32.21 min | Stage N1 Duration (MWT), LS Mean (6 hours post infusion start): 0.07 min | Stage N1 Duration (MWT), LS Mean Difference vs placebo (6 hours post infusion start): -1.08 min | Stage N2 Duration (MWT), LS Mean (6 hours post infusion start): 0.06 min | Stage N2 Duration (MWT), LS Mean Difference vs placebo (6 hours post infusion start): -0.44 min | Total Microsleeps (MWT), LS Mean (6 hours post infusion start): 0.11 | Total Microsleeps (MWT), LS Mean Difference vs placebo (6 hours post infusion start): −1.14 | Duration Total Microsleeps (MWT), LS Mean (8 hours post infusion start): 5.21 s | Duration Total Microsleeps (MWT), LS Mean Difference vs placebo (8 hours post infusion start): -2.59 s | Latency to Sleep Onset on MWT, LS Mean (8 hours post infusion start): 36.86 min | Latency to Sleep Onset on MWT, LS Mean Difference vs placebo (8 hours post infusion start): 33.33 min | Stage N1 Duration (MWT), LS Mean (8 hours post infusion start): 0.18 min | Stage N1 Duration (MWT), LS Mean Difference vs placebo (8 hours post infusion start): -0.97 min | Stage N2 Duration (MWT), LS Mean (8 hours post infusion start): 0.28 min | Stage N2 Duration (MWT), LS Mean Difference vs placebo (8 hours post infusion start): -0.82 min | Total Microsleeps (MWT), LS Mean (8 hours post infusion start): 1.11 | Total Microsleeps (MWT), LS Mean Difference vs placebo (8 hours post infusion start): −0.19 | Duration Total Microsleeps (MWT), LS Mean [1]: 1.40 s | Duration Total Microsleeps (MWT), LS Mean Difference vs placebo [1]: -7.68 s | Latency to Sleep Onset on MWT, LS Mean [1]: 38.82 min and 38.82 (1.955) min | Latency to Sleep Onset on MWT, LS Mean Difference vs placebo [1]: 30.21 min and 30.2 min and 30.21 (2.682) min | Stage N1 Duration (MWT), LS Mean [1]: 0.04 min | Stage N1 Duration (MWT), LS Mean Difference vs placebo [1]: -1.23 min | Stage N2 Duration (MWT), LS Mean [1]: 0.09 min | Stage N2 Duration (MWT), LS Mean Difference vs placebo [1]: -0.81 min | Total Microsleeps (MWT), LS Mean [1]: 0.31 | Latency to Sleep Onset on MWT, LS Mean (SE) [2]: 2.36 (2.241) | Latency to Sleep Onset on MWT, LS Mean Difference vs placebo, Estimate (SE) [2]: −2.29 (2.752) | Total Sleep Time LS Mean [3]: 0.02 min | Total Sleep Time LS Mean Difference vs Placebo Estimate [3]: -2.71 min | Total Wake Time LS Mean [3]: 39.89 min | Total Wake Time LS Mean Difference vs Placebo Estimate [3]: 22.17 min | Total Sleep Time LS Mean [4]: -0.01 min | Total Sleep Time LS Mean Difference vs Placebo Estimate [4]: -3.16 min | Total Wake Time LS Mean [4]: 40.08 min | Total Wake Time LS Mean Difference vs Placebo Estimate [4]: 30.03 min | Total Sleep Time LS Mean [5]: 0.21 min | Total Sleep Time LS Mean Difference vs Placebo Estimate [5]: -2.01 min | Total Wake Time LS Mean [5]: 38.86 min | Total Wake Time LS Mean Difference vs Placebo Estimate [5]: 32.44 min | Total Sleep Time LS Mean [6]: 0.57 min | Total Sleep Time LS Mean Difference vs Placebo Estimate [6]: -2.35 min | Total Wake Time LS Mean [6]: 37.36 min | Total Wake Time LS Mean Difference vs Placebo Estimate [6]: 33.71 min | Total Sleep Time LS Mean [7]: 0.20 min | Total Sleep Time LS Mean Difference vs Placebo Estimate [7]: -2.56 min | Total Wake Time LS Mean [7]: 39.05 min | Total Wake Time LS Mean Difference vs Placebo Estimate [7]: 29.59 min | Total Sleep Time LS Mean [8]: 0.47 min | Total Sleep Time LS Mean Difference vs Placebo Estimate [8]: -2.26 min | Total Wake Time LS Mean [8]: 35.73 min | Total Wake Time LS Mean Difference vs Placebo Estimate [8]: 18.00 min | Total Sleep Time LS Mean [9]: 1.27 min | Total Sleep Time LS Mean Difference vs Placebo Estimate [9]: -1.88 min | Total Wake Time LS Mean [9]: 32.42 min | Total Wake Time LS Mean Difference vs Placebo Estimate [9]: 22.37 min | Total Sleep Time LS Mean [10]: 4.69 min | Total Sleep Time LS Mean Difference vs Placebo Estimate [10]: 2.47 min | Total Wake Time LS Mean [10]: 21.78 min | Total Wake Time LS Mean Difference vs Placebo Estimate [10]: 15.36 min | Total Sleep Time LS Mean [11]: 5.63 min | Total Sleep Time LS Mean Difference vs Placebo Estimate [11]: 2.71 min | Total Wake Time LS Mean [11]: 13.37 min | Total Wake Time LS Mean Difference vs Placebo Estimate [11]: 9.72 min | Total Sleep Time LS Mean [12]: 3.02 min | Total Sleep Time LS Mean Difference vs Placebo Estimate [12]: 0.26 min | Total Wake Time LS Mean [12]: 25.83 min | Total Wake Time LS Mean Difference vs Placebo Estimate [12]: 16.36 min | Compound A plasma concentration at which magnitude of wake-promoting effects appeared to diminish over time (sleep latency vs plasma concentration by MWT session (FIG. 8)): less than 200 ng/mL
